Source: ChEMBL document CHEMBL1142543, “Arabinose 5-phosphate analogues as mechanistic probes for Neisseria meningitidis 3-deoxy-D-manno-octulosonate 8-phosphate synthase” (Bioorg Med Chem, 2008)

Tested on: Neisseria meningitidis MC58
Assay: Activity at Neisseria meningitidis B MC58 (ATCC BAA355) recombinant 3-deoxy-D-manno-octulosonate 8-phosphate synthase expressed in Escherichia coli BL21 (DE3)

kcat [s⁻¹]	SMILES
1.1	O=C[C@@H](O)[C@H](O)[C@@H](O)COP(=O)(O)O
2.7	O=C[C@@H](O)[C@H](O)[C@H](O)COP(=O)(O)O
